# According to US11970521B2, “Neuroprotective beta amyloid core peptides and peptidomimetic derivatives” (priority 2016, dated 2024):
# Where no end group is shown, it is not given here. [ ]: non-standard residue; d: D form.
# Columns and labels:
# [1] = tested on: NG108-15 cells expressing α4β2-nAChRs; assay: Cell stress (ROS) assay, α4β2-nAChR-transfected differentiated NG108-15 cells treated with Aβ1-42; assay type: cell-based, rodent; details: for Aβ1-42-induced ROS, co-treatment with stabilized peptides: daily 100 nM with 100 nM Aβ1-42, FIG. 9B, p<0.05 vs. Aβ1-42 alone
# From the text: (§1) In Vitro Neuronal Models. The studies were, performed on the NG108-15 rodent hybrid neuroblastoma cell line and primary hippocampal neuron cultures. The cell line can be differentiated, yielding axonal neurites with presynaptic-like varicosities that have the ability to release acetylcholine via exocytosis in response to stimulation. […] The primary hippocampal neuron cultures provide a physiologically relevant model.
# (§2) Neuroblestoma Clonal Cell Culture and Transfection. Rodent hybrid neuroblastoma NG108-15 cells were used as a model nerve cell system allowing reconstitution with defined target receptors for Aβ. The cells were cultured in Dulbecco's modified Eagle's medium (DMEM) containing 15% fetal bovine serum (FBS) and differentiated in the presence of reduced serum (1% FBS) and 1 mM dibutyryl cyclic AMP for 72 h, Expression vectors (pcDNA3.1) containing mouse sequences for α4 and β2 nAChR subunits (1:4 ratio respectively) were transiently transfected into the cells using FuGENE HD (ThernioFisher, catalog #PRE2311) for 48 h. Mock-transfected NG108-15 cells, exposed only to FuGENE HO and not plasmid DNA, were used as controls.
# Cell Stress Assays. Cells were plated, differentiated and treated for 3 days poor to assay. Cell count and fluorescence intensity of reactive oxygen species (ROS)-positive cells were assessed as a means to measure cellular oxidative stress using an Image-IT® LIVE Green Reactive Oxygen Species Detection Kit. In brief, the cells were treated for three days for NG108-15 cultures end five or ten days for primary hippocampal neuronal cultures. The media was changed every day, thus replenishing with fresh Aβ every 24 h, unless otherwise noted. Thereafter, the cells were incubated with carboxy-H2DCFDA (component A) at 37° C. for 30 min. During the last 5 min of incubation, 2 μg/ml of HOECHST stain (component B) was added to assess, in parallel, the integrity of the cell nuclei. The cells were washed twice with HBS and visualized using an Olympus IX81 epifluorescence microscope at excitation/emission of 495) 529 nm (ROS) and 350/461 nm (HOECHST), respectively.
# α4β2-nAChRs = biological target: T1, α4β2-nAChRs (Mus musculus, UniProt O70174+Q9ERK7); assay: Ca2+ imaging (Fluo-4) in varicosities of NG108-15 cells expressing α4β2-nAChRs; assay type: cell-based; details: 100 nM; FIG. 13B
# T1 construct: expressed in transfected cells; host or cells: differentiated NG108-15 rodent hybrid neuroblastoma cells, pcDNA3.1 vectors, transient transfection with FuGENE HD
# T1 sequence (O70174 31-629): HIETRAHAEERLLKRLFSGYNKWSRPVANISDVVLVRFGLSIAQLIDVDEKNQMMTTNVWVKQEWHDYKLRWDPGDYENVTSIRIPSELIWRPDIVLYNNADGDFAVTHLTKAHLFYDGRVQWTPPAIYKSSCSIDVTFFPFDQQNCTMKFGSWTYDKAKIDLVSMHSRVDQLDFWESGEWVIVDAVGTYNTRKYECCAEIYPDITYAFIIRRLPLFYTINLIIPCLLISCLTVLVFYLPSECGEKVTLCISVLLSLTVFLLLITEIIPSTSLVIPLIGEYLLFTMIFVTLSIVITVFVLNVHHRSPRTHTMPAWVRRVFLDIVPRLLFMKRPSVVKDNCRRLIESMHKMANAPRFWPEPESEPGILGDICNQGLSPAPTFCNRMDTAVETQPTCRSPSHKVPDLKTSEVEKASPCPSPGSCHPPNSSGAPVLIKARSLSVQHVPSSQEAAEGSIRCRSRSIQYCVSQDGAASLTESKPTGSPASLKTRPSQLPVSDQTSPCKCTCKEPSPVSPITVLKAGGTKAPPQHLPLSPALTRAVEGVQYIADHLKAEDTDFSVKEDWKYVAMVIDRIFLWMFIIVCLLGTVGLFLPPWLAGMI
# T1 sequence (Q9ERK7 26-501): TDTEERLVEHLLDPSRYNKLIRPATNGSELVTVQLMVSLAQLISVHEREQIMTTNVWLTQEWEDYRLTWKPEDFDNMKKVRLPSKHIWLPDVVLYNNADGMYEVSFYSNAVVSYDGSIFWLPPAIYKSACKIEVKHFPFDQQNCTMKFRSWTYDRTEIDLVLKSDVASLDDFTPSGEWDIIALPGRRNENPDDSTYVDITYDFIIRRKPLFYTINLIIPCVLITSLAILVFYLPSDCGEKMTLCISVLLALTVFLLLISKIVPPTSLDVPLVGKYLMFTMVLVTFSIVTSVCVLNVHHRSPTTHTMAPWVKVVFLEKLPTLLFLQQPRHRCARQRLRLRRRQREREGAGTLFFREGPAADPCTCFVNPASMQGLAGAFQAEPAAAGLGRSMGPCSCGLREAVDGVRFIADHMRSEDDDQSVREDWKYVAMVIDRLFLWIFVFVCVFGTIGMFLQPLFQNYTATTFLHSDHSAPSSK
# Procedure: as §2
# Ca^2+ Imaging Fluo-4, a Ca^2+ indicator dye, was loaded into cells on coverslips and visualization of [Ca^2+] was done via a Nikon PCM 2000 Cameleon AOTF confocal microscope. Each time-series was normalized to baseline fluorescence intensity at time zero (F/F0). After recording a baseline image series, each treatment was perfused over cells for 2.5 minutes or 15 minutes and quantification of relative fluorescence changes was analyzed through imageJ.
# [2] = tested on: mock-transfected NG108-15 cells; assay: Cell stress (ROS) assay, mock-transfected NG108-15 cells (absent nAChRs) treated with μM Aβ1-42; assay type: cell-based, rodent; details: co-treatment with nM-μM concentrations and 1 μM Aβ1-42; FIG. 6A; p<0.0001
# From the text: as §1, §2
# Cell Stress Assays. […] Cell count and fluorescence intensity of reactive oxygen species (ROS)-positive cells were assessed as a means to measure cellular oxidative stress using an Image-IT® LIVE Green Reactive Oxygen Species Detection Kit. […]
# [3] = tested on: primary hippocampal neurons; assay: Cell stress (ROS) assay in primary hippocampal neuron cultures; assay type: cell-based, mouse; details: 1 μM with 1 μM Aβ1-42, 5 or 10 days; p<0.0001
# From the text: Hippocampal Neuron Culture. All animal procedures followed an tACUC-approved protocol in accordance with animal welfare guidelines, Hippocampal neuron cultures even prepared from neonatal mouse pups (0-2d old) of either gender (roughly equivalent numbers) obtained from established colonies of wild-type B6.SJL (background) mice. Following rapid decapitation, brains were removed into ice-cold Neurobasal A medium (NB) containing B-27 supplement, 5% fetal bovine serum and Gentamicin (serum NB). Hippocampi were then isolated under a stereomicroscope. The hippocampi were digested with papain (Worthington, catalog #35N16202) in Hanks with 10 mM cysteine at 37° C. for 15 mins. The preparations were washed by centrifugation in serum NB. The cells were dissociated using sequential trituration with polished Pasteur pipettes of decreasing diameter and collected by low-speed centrifugation. The dissociated cells were preplated in standard tissue culture dishes to remove adherent non-neuronal cells (glia; fibroblasts) for 10-15 mins. […]
# [4] = tested on: NG108-15 cells expressing α4β2-nAChRs; assay: Cell death (apoptosis) TUNEL assay, α4β2-nAChR-transfected NG108-15 cells; assay type: cell-based, rodent; details: nM co-treatment on day 1, 2 or 3 after start of daily Aβ1-42; FIG. 14A; p<0.0001
# Procedure: as §2
# Cell Death (Apoptosis) Assay. Cells were plated, differentiated and treated for either 3 or 4 days prior to assay. Apoptotic cells were detected as DNA fragmentation by Click-IT TUNEL Alexa fluor 488. In brief, the cells were treated for four days, exchanging media each day. After the fourth day of treatment, the cells were fixed with freshly prepared 4% paraformaldehyde in PBS at room temperature for 20 min and permeabilized with Triton X-100 (0.25% in PBS) for another 20 min. The cultures were then washed twice and incubated with 50 μL of terminal deoxynucleotidyi transferase reaction buffer (Component A) for 10 min at room temperature. […]
# [5] = tested on: mock-transfected NG108-15 cells; assay: Cell death (apoptosis) TUNEL assay, NG108-15 cells without nAChRs; assay type: cell-based; details: nM-μM co-treatment over four days with 1 μM Aβ1-42; FIG. 14B; trend of greater reduction at μM
# Procedure: as §2
# [6] = tested on: NG108-15 cells expressing α4β2-nAChRs; assay: Cell survival (daily cell counts), NG108-15 cells with α4β2-nAChRs; assay type: cell-based, rodent; details: 100 nM co-treatment with 100 nM Aβ1-42; FIG. 10A; p<0.0001
# Procedure: Neuroblestoma Clonal Cell Culture and Transfection. Rodent hybrid neuroblastoma NG108-15 cells were used as a model nerve cell system allowing reconstitution with defined target receptors for Aβ. […] Mock-transfected NG108-15 cells, exposed only to FuGENE HO and not plasmid DNA, were used as controls.
# (§3) Cell Survival. Cell survival was determined by counting cells everyday for 7 or 10 days of treatment. For each condition, all cells in 5 random fields of view were counted and averaged. Percent cell death was calculated based on daily cell counts as a proportion of starting cell count numbers (i.e. day 0).
# [7] = tested on: primary hippocampal neurons; assay: Cell survival (cell counts), primary hippocampal neurons; assay type: cell-based, mouse; details: 1 μM with 1 μM Aβ1-42; FIG. 10B; p<0.0001
# Procedure: as §3
Substance,"Aβ1-42-induced ROS, co-treatment with stabilized peptides [1]",Average peak Ca2+ response relative to N-Aβcore (α4β2-nAChRs),"Aβ1-42-induced ROS, co-treatment or post-treatment (rescue) ([1]; nM concentrations, co-treatment or rescue for 3-, 2- or 1-day, 100 nM Aβ1-42, FIG. 5A, p<0.0001)",Aβ1-42-induced oxidative stress (ROS) in absence of nAChRs [2],"Aβ1-42-induced ROS in primary neurons, co-treatment [3]",Aβ1-42-induced apoptosis (TUNEL staining) [4],Aβ1-42-induced DNA-fragmentation in absence of nAChRs [5],"Aβ1-42-induced cell death at 7 days, co-treatment [6]","Aβ1-42-induced cell death over 10-day treatments, co-treatment [7]"
Capped-D-[Aβcore]: D-enantiomer N-Aβcore with N-terminal acetylation and C-terminal amidation (Ac-[dY][dE][dV][dH][dH][dQ]-NH2; SMILES CC(=O)N[C@H](Cc1ccc(O)cc1)C(=O)N[C@H](CCC(=O)O)C(=O)N[C@@H](C(=O)N[C@H](Cc1c[nH]cn1)C(=O)N[C@H](Cc1c[nH]cn1)C(=O)N[C@H](CCC(N)=O)C(N)=O)C(C)C),reduces ROS,retains activity,–,–,–,–,–,–,–
D-[Aβcore]: N-Aβcore converted from L-configuration to D-configuration for each amino acid ([dY][dE][dV][dH][dH][dQ]),reduces ROS,retains activity,–,–,–,–,–,–,–
Tyrosine-Glutamate-Valine-Histidine-Histidine-Glutamine [N-Aβcore],–,–,reduced Aβ1-42-induced ROS back to baseline levels,reduced this oxidative stress compared to Aβ1-42 alone,reduced the levels of ROS down to untreated (baseline) levels,reduced apoptosis compared to Aβ1-42 alone,reduced DNA-fragmentation compared to Aβ1-42 alone,able to fully protect against Aβ1-42-induced cell death,protected primary hippocampal neurons against β1-42-induced cell death
capped-N-Aβcore: N-Aβcore with N-terminus capped with an acetyl group and C-terminus with an amide group (Ac-YEVHHQ-NH2),reduces ROS,retained its potent activity,–,–,–,–,–,–,–
